Assay results reported in US8492404B2, “Bis-aryl amide compounds and methods of use” (Amgen Inc., priority 2005, dated 2013).

The molecules below were run against T1, Lck kinase enzyme (Homo sapiens, UniProt P06239) (assay: LCK-Homogeneous Time Resolved Fluorescent (HTRF) Kinase Assay). Conditions: read-out: average IC50 value for the inhibition of the Lck kinase enzyme.
T1 construct: LCK KD GST (225-509); GST
Type: biochemical
Method: LCK-Homogeneous Time Resolved Fluorescent (HTRF) Kinase Assay:
The LCK HTRF assay begins with LCK in the presence of ATP phosphorylating the biotinylated peptide Gastrin. The reaction incubates for 90 min. To quench the assay detection reagents are added which both stop the reaction by diluting out the enzyme and chelating the metals due to the presence of EDTA. Once the detection reagents are added the assay incubates for 30 min to allow for equilibration of the detection reagents. […] Buffer conditions are as follows: 50 mM HEPES pH 7.5, 50 mM NaCl, 20 mM MgCl, 5 mM MnCl, 2 mM DTT, 0.05% BSA.
The assay is quenched and stopped with 160 μL of detection reagent. Detection reagents are as follows: Buffer made of 50 mM Tris, pH 7.5, 100 mM NaCl, 3 mM EDTA, 0.05% BSA, 0.1% Tween20.
The assay plate is read in either a Discovery or a RubyStar.

T1 sequence (P06239 225-509): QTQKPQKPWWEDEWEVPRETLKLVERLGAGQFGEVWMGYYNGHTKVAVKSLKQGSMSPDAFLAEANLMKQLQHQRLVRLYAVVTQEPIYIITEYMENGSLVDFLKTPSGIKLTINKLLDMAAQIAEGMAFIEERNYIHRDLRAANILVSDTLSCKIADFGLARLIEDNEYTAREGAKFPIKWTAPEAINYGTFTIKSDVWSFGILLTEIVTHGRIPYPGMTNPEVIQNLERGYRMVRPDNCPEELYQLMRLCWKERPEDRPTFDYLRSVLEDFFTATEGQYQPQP

Row | IC50 [µM] | Compound
1 | ≤ 10 | Cc1ccc(NC(=O)Nc2cccc(C(F)(F)F)c2)cc1C(=O)Nc1cncnc1 [Example 88, 1-(4-methyl-3-(pyrimidin-5-ylcarbamoyl)phenyl)-3-(3-(trifluoromethyl)phenyl)urea]
2 | ≤ 10 | Cc1ccc(NC(=O)c2cc3ccccc3n2C)cc1C(=O)Nc1cnc(Nc2ccc(N3CCN(C)CC3)cc2)nc1 [Example 96, 1-methyl-N-(4-methyl-3-((2-(4-(4-methylpiperazin-1-yl)phenylamino)pyrimidin-5-yl)carbamoyl)phenyl)-1H-indole-2-carboxamide]

What follows are molecules tested against T2, c-kit kinase enzyme (Homo sapiens, UniProt P10721) (assay: cKIT-Homogeneous Time Resolved Fluorescent (HTRF) Kinase Assay). Conditions: read-out: average IC50 value for the inhibition of the c-kit kinase enzyme.
T2 construct: cKIT (6.25 μM) (catalytic domain, N-terminal GST tagged, unphosphorylated)
Type: biochemical
Method: cKIT-Homogeneous Time Resolved Fluorescent (HTRF) Kinase Assay:
The purpose of this assay is to measure the inhibition of cKIT enzyme activity (autophosphorylation and phosphorylation of substrate) by small molecule test compounds. The cKIT HTRF assay begins with cKIT-catalyzed phosphorylation of biotinylated peptide Her-2 (N-[…]-C) in the presence of ATP. The cKIT enzyme reaction is comprised of 1 μL of compound in 100% DMSO, 15 μL of 2× substrate mix (50 μM ATP and 2 μM biotinylated Her-2) and 15 μL of 2× cKIT (6.25 μM) (catalytic domain, N-terminal GST tagged, unphosphorylated) in 4 mM DTT all diluted in enzyme buffer (25 mM HEPES pH 7.5, 12.5 mM NaCl, 50 mM MgCl, 0.05% BSA). The reaction incubates for 90 min at room temperature. One-hundred and sixty microliters of detection mixture containing 0.47 μg/mL steptavidin allophycocyanin and 29.7 pM europylated anti-phosphotyrosine Ab (PT66, Perkin Elmer) in HTRF buffer (100 mM Hepes pH 7.5, 100 mM NaCl, 0.1% BSA, 0.05% Tween 20) is then added to stop the reaction by diluting out the enzyme as well as to enable quantitation of phosphorylated Her-2. After 3 h at room temperature, the detection reaction is read in a Packard Discovery™ (model BD1000) plate reader. The wells are excited with coherent […] light and the ratio of delayed ([…] post excitation) emissions at […] (native europium fluorescence) and 665 nm (europium fluorescence transferred to allophycocyanin—an index of substrate phosphorylation) is determined. The proportion of substrate phosphorylated in the kinase reaction in the presence of compound compared with that phosphorylated in the presence of DMSO vehicle alone (HI control) is calculated using the formula: % control (POC)=(cpd−average LO)/(average HI−average LO)*100. Data (consisting of POC and inhibitor concentration in μM) is fitted to a 4-parameter equation (y=A+((B−A)/(1+((x/C)^D))), where A is the minimum y (POC) value, B is the maximum y (POC), C is the x (cpd concentration) at the point of inflection and D is the slope factor) using a Levenburg-Marquardt non-linear regression algorithm.

T2 sequence (P10721 589-937 limits assumed): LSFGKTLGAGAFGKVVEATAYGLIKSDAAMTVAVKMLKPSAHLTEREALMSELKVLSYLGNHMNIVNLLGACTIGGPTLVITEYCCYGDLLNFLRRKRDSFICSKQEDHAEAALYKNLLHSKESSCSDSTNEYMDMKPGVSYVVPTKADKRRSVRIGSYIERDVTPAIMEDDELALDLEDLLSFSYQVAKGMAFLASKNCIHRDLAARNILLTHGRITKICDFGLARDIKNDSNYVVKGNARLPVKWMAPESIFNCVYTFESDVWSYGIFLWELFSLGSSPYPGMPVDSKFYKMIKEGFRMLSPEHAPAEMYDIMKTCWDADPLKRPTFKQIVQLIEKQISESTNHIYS

Row | Compound | IC50 [µM]
3 | Cc1ccc(NC(=O)Nc2cccc(C(F)(F)F)c2)cc1C(=O)Nc1cnc(N)nc1 [Example 90, N-(2-amino-5-pyrimidinyl)-2-methyl-5-((((3-(trifluoromethyl)phenyl)amino)carbonyl)amino)benzamide] | ≤ 10
4 | Cc1ccc(NC(=O)c2cccc(C(F)(F)F)c2)cc1C(=O)Nc1cnc(NCCN2CCOCC2)nc1 [Example 2] | ≤ 10
5 | Cc1ccc(NC(=O)c2cccc(C(F)(F)F)c2)cc1C(=O)Nc1cnc(N)nc1 [Example 1, N-(2-amino-5-pyrimidinyl)-2-methyl-5-(((3-(trifluoromethyl)phenyl)carbonyl)amino)benzamide] | ≤ 10
6 | Cc1ccc(NC(=O)c2ccc3ncsc3c2)cc1C(=O)Nc1cnc(N)nc1 [Example 109, N-(3-((2-aminopyrimidin-5-yl)carbamoyl)-4-methylphenyl)benzo[d] thiazole-6-carboxamide] | ≤ 10
7 | Cc1ccc(NC(=O)Nc2cccc(C(F)(F)F)c2)cc1C(=O)Nc1cncnc1 [Example 88, 1-(4-methyl-3-(pyrimidin-5-ylcarbamoyl)phenyl)-3-(3-(trifluoromethyl)phenyl)urea] | ≤ 10
8 | Cc1ccc(NC(=O)c2cc3ccccc3n2C)cc1C(=O)Nc1cnc(Nc2ccc(N3CCN(C)CC3)cc2)nc1 [Example 96, 1-methyl-N-(4-methyl-3-((2-(4-(4-methylpiperazin-1-yl)phenylamino)pyrimidin-5-yl)carbamoyl)phenyl)-1H-indole-2-carboxamide] | ≤ 10

More lines, now with the values ahead:

Row | IC50 [µM] | Compound
9 | ≤ 10 | Cc1ccc(NC(=O)c2ccc(Cl)c(C(F)(F)F)c2)cc1C(=O)Nc1cnc(Nc2ccc(N3CCN(C)CC3)cc2)nc1 [Example 113, 4-chloro-N-(4-methyl-3-(((2-((4-(4-methyl-1-piperazinyl)phenyl)amino)-5-pyrimidinyl)amino)carbonyl)phenyl)-3-(trifluoromethyl) benzamide]
10 | ≤ 10 | Cc1ccc(NC(=O)c2csc(-c3cccs3)n2)cc1C(=O)Nc1cnc(Nc2ccc(N3CCN(C)CC3)cc2)nc1 [Example 141]
11 | ≤ 10 | Cc1ccc(C(=O)NCCC2CCCCC2)cc1C(=O)Nc1ccc(N)nc1 [Example 182, N~3~-(6-amino-3-pyridinyl)-N~1~-(2-cyclohexylethyl)-4-methyl-1,3-benzenedicarboxamide]
12 | ≤ 10 | Cc1ccc(NC(=O)c2cc(I)ccc2O)cc1C(=O)Nc1cnc(Nc2ccc(N3CCN(C)CC3)cc2)nc1 [Example 112, 2-hydroxy-5-iodo-N-(4-methyl-3-(((2-((4-(4-methyl-1-piperazinyl)phenyl)amino)-5-pyrimidinyl)amino)carbonyl)phenyl) benzamide]
13 | ≤ 10 | Cc1ccc(C(=O)NCCC2CCCC2)cc1C(=O)Nc1ccc(NC(=O)c2c[nH]cn2)nc1 [Example 206, N~1~-(2-cyclopentylethyl)-N~3~-(6-((1H-imidazol-4-ylcarbonyl)amino)-3-pyridinyl)-4-methyl-1,3-benzenedicarboxamide]
14 | ≤ 10 | Cc1ccc(NC(=O)c2ccc3[nH]ccc3c2)cc1C(=O)Nc1cnc(N)nc1 [Example 110, N-(3-((2-aminopyrimidin-5-yl)carbamoyl)-4-methylphenyl)-1H-indole-5-carboxamide]
